Measured values taken from ChEMBL document CHEMBL6092216, “Development of α-Helical Antimicrobial Peptides with Imperfect Amphipathicity for Superior Activity and Selectivity” (J Med Chem, 2024).
The source made the active and inactive calls. The calls are words filed in the database; no cut-off is given here.

Tests used:
Erythrocyte = test: Induction of hemolysis in mouse red blood cells at 1.56 to 100 ug/ml incubated for 1 hr; format: toxicity, cell-based; details: dose 1.56-100 µg/ml
HaCaT = test: Cytotoxicity against human HaCaT cells assessed as effect on cell viability at 3.13 to 400 ug/ml incubated for 24 hrs by CCK-8 assay; format: toxicity, cell-based; details: dose 3.13-400 µg/ml
Acinetobacter baumannii [1] = test: Antibacterial activity against Acinetobacter baumannii 10769 assessed as inhibition of bacterial growth incubated for 24 hrs by tube microdilution assay; format: functional
Acinetobacter baumannii [2] = test: Antibacterial activity against Acinetobacter baumannii 19110 assessed as inhibition of bacterial growth incubated for 24 hrs by tube microdilution assay; format: functional
Escherichia coli = test: Antibacterial activity against Escherichia coli 5017 assessed as inhibition of bacterial growth incubated for 24 hrs by tube microdilution assay; format: functional
Staphylococcus aureus [3] = test: Antibacterial activity against Staphylococcus aureus 08310 assessed as inhibition of bacterial growth incubated for 24 hrs by tube microdilution assay; format: functional
Staphylococcus aureus [4] = test: Antibacterial activity against Staphylococcus aureus 15772 assessed as inhibition of bacterial growth incubated for 24 hrs by tube microdilution assay; format: functional
Staphylococcus aureus [5] = test: Antibacterial activity against Staphylococcus aureus 157752 assessed as inhibition of bacterial growth incubated for 24 hrs by tube microdilution assay; format: functional
Staphylococcus aureus [6] = test: Antibacterial activity against methicillin-resistant Staphylococcus aureus 42 assessed as inhibition of bacterial growth incubated for 24 hrs by tube microdilution assay; format: functional
Pseudomonas aeruginosa [7] = test: Antibiofilm activity against Pseudomonas aeruginosa ATCC 27853 assessed as inhibition of biofilm formation at 1X to 10XMIC incubated for 24 hrs by crystal violet staining based analysis; format: functional, organism-based
Acinetobacter baumannii [8] = test: Antibiofilm activity against Acinetobacter baumannii ATCC 19606 assessed as inhibition of biofilm formation at 1X to 10XMIC incubated for 24 hrs by crystal violet staining based analysis; format: functional, organism-based
Staphylococcus aureus [9] = test: Antibiofilm activity against preformed Staphylococcus aureus ATCC 6538 biofilms assessed as biofilm eradication at 1X to 10XMIC incubated for 24 hrs by crystal violet staining based analysis; format: functional, organism-based
Acinetobacter baumannii [10] = test: Antipersister-activity against Acinetobacter baumannii ATCC 19606 assessed as elimination of persister cells preincubated adherent persistent cells with colistin for 24 hrs followed by incubation with drug for 12 hrs; format: functional, organism-based
Staphylococcus aureus [11] = test: Antipersister-activity against Staphylococcus aureus ATCC 6538 assessed as elimination of persister cells preincubated adherent persistent cells with vancomycin for 24 hrs followed by incubation with drug for 12 hrs; format: functional, organism-based
Cell membrane = test: Induction of membrane permeabilization in Staphylococcus aureus ATCC 6538 assessed as increase in fluorescence intensity at 1X to 10XMIC measured for 90 mins by propidium iodide staining based fluorescence analysis; format: subcellular
Pseudomonas aeruginosa [12] = test: Induction of bacterial cell rupture in Pseudomonas aeruginosa ATCC 27853 assessed as bacterial membrane damage with visible surface irregularities and protrusions at 5XMIC measured after 30 mins scanning electron microscopy; format: functional, organism-based
Pseudomonas aeruginosa [13] = test: Bactericidal activity against Pseudomonas aeruginosa ATCC 27853 assessed as elimination of bacterial cells at 5X to 10XMIC measured within 3 hrs by killing kinetic assay; format: functional
Staphylococcus aureus [14] = test: Ratio of MIC for antibacterial activity against Staphylococcus aureus ATCC 6538 measured following incubation of drug with mouse plasma for 8 hrs to MIC for antibacterial activity against Staphylococcus aureus ATCC 6538; format: functional
Staphylococcus aureus [15] = test: Antibacterial activity against Staphylococcus aureus ATCC 6538 infected in BALB/c mouse assessed as inhibition of bacterial colonization on wounded skin at 2 mg/ml applied on skin and measured after 2 hrs relative to control; format: functional

## H-RRGIKKFIKKVKKVKKAI-OH
Erythrocyte
  Activity: Non-toxic
HaCaT
  Activity: Non-toxic
Acinetobacter baumannii [1]
  MIC: 2.34 mg/L
Acinetobacter baumannii [2]
  MIC: 2.34 mg/L
Escherichia coli
  MIC: 9.37 mg/L
Staphylococcus aureus [3]
  MIC: 2.34 mg/L
Staphylococcus aureus [4]
  MIC: 2.34 mg/L
Staphylococcus aureus [5]
  MIC: 2.34 mg/L
Staphylococcus aureus [6]
  MIC: 2.34 mg/L
Pseudomonas aeruginosa [7]
  Activity: Dose-dependent-effect
Acinetobacter baumannii [8]
  Activity: Dose-dependent-effect
Staphylococcus aureus [9]
  Activity: Active
Acinetobacter baumannii [10]
  Activity: Dose-dependent-effect
Staphylococcus aureus [11]
  Activity: Dose-dependent-effect
Cell membrane
  Activity: Dose-dependent-effect
Pseudomonas aeruginosa [12]
  Activity: Active
Pseudomonas aeruginosa [13]
  Activity: 100%
Staphylococcus aureus [14]
  Ratio: 4
Staphylococcus aureus [15]
  inhibition in vivo at 2000 µg/mL: 82.4%
